Assay results as given in ChEMBL document CHEMBL1143488, “Bis(indole) alkaloids as sortase A inhibitors from the sponge Spongosorites sp” (Bioorg Med Chem Lett, 2005).
Values after ≈ are worked out from the molar mass of the structure shown.

Columns and labels:
[1] = biological target: T1, Sortase A (Staphylococcus aureus, UniProt Q9S446); assay: Inhibitory activity against Sortase A from Staphylococcus aureus
T1 sequence (Q9S446 whole entry): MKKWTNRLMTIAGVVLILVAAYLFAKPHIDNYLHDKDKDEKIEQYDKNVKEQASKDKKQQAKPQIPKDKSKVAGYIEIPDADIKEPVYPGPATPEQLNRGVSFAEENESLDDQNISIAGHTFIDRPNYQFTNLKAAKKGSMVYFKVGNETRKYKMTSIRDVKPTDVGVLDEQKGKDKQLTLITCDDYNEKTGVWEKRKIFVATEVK

[2] = tested on: Staphylococcus aureus; assay: Minimum inhibitory concentration against Staphylococcus aureus Newman strain; format: functional

**Q.** How did the IC50 [1] turn out when `O=C1N[C@@H](c2c[nH]c3cc(Br)ccc23)CN[C@@H]1c1c[nH]c2cc(Br)ccc12` was run?
**A.** > 205 µM

**Q.** What about the MIC [2] of the same compound?
**A.** 12.5 µg/mL (≈ 25.6 µM)

**Q.** `O=C1N[C@H](c2c[nH]c3cc(Br)ccc23)CN=C1c1c[nH]c2cc(Br)ccc12` was tested. Which IC50 [1] did it give?
**A.** 178 µM

**Q.** And the MIC [2]?
**A.** 3.12 µg/mL (≈ 6.42 µM)

**Q.** With `O=C1NC[C@@H](c2c[nH]c3cc(Br)ccc23)N=C1c1c[nH]c2cc(Br)ccc12` as the compound, how does the IC50 [1] read?
**A.** 142 µM

**Q.** What about the MIC [2] of the same compound?
**A.** 6.25 µg/mL (≈ 12.9 µM)

**Q.** With `O=C1N[C@H](c2c[nH]c3cc(Br)ccc23)CN=C1c1c[nH]c2ccccc12` as the compound, how does the IC50 [1] read?
**A.** 83.6 µM

**Q.** And the MIC [2]?
**A.** 6.25 µg/mL (≈ 15.3 µM)

**Q.** For `O=C1NC[C@@H](c2c[nH]c3cc(Br)ccc23)N=C1c1c[nH]c2ccccc12` [(R)-6'-DEBROMOHAMACANTHIN B], which IC50 [1] is on record?
**A.** > 246 µM

**Q.** And the MIC [2]?
**A.** 100 µg/mL (≈ 246 µM)

**Q.** `O=C(c1ncc(-c2c[nH]c3cc(Br)ccc23)[nH]1)c1c[nH]c2ccccc12` [BROMODEOXYTOPSENTIN] was tested. Which IC50 [1] did it give?
**A.** 48 µM

**Q.** `O=C(c1nc(-c2c[nH]c3cc(Br)ccc23)c[nH]1)c1c[nH]c2cc(O)ccc12` [BROMOTOPSENTIN] was tested. Which IC50 [1] did it give?
**A.** 39.6 µM

**Q.** What about the MIC [2] of the same compound?
**A.** 25 µg/mL (≈ 59.3 µM)

**Q.** Which IC50 [1] does the source give for `O=C(c1nc(-c2c[nH]c3ccccc23)c[nH]1)c1c[nH]c2ccccc12` [DEOXYTOPSENTIN] here?
**A.** 48 µM

**Q.** How did the IC50 [1] turn out when `CC[C@H](CC[C@@H](C)[C@H]1CC[C@H]2[C@@H]3CC=C4C[C@@H](O[C@@H]5O[C@H](CO)[C@@H](O)[C@H](O)[C@H]5O)CC[C@]4(C)[C@H]3CC[C@]12C)C(C)C` [SITOGLUSIDE] was run?
**A.** 31.7 µM

**Q.** And the MIC [2]?
**A.** 200 µg/mL (≈ 347 µM)
